Laboratory results from ChEMBL document CHEMBL4177593, “Recently reported biological activities of pyrazole compounds” (Bioorg Med Chem, 2017).
Values after ≈ are worked out from the molar mass of the structure shown.

Tests used:
Bacillus subtilis = assay: Antibacterial activity against Bacillus subtilis MTCC 441 by broth microdilution method; format: functional, organism-based
Rattus norvegicus [1] = assay: Ulcerogenic activity in albino rat assessed as ulcer index at 20 mg/kg, po administered daily for 3 successive days in two equal doses at 0 and 12 hrs measured at 6 hrs post last dose by magnifying lens based assay; format: toxicity, organism-based; details: in vivo
Rattus norvegicus [2] = assay: Anti inflammatory activity in Wistar rat assessed as inhibition of carrageenan-induced paw edema at 5 mg/kg, po pretreated for 30 mins followed by carrageenan addition measured up to 4 hrs relative to control; format: functional
Ovis aries = organism: Ovis aries; assay: Selectivity index, ratio of IC50 for ovine COX1 to IC50 for ovine COX2
Rattus norvegicus [3] = assay: Anti inflammatory activity in rat assessed as inhibition of carrageenan-induced hind paw edema at 50 mg/kg measured after 1 to 4 hrs by plethysmographic method relative to control; format: functional
MCF7 [4] = assay: Antiproliferative activity against human MCF7 cells after 48 hrs by SRB assay; format: functional, cell-based; details: MCF7, 48 h
IMR-32 = assay: Antiproliferative activity against human IMR32 cells after 48 hrs by SRB assay; format: functional, cell-based; details: IMR-32, 48 h
A549 = assay: Antiproliferative activity against human A549 cells after 48 hrs by SRB assay; format: functional, cell-based; details: A549, 48 h
HeLa = assay: Antiproliferative activity against human HeLa cells after 48 hrs by SRB assay; format: functional, cell-based
Leishmania infantum = assay: Antileishmanial activity against Leishmania infantum MCAN/BR/97/P142 promastigotes after 24 hrs; format: functional, organism-based; details: MCAN/BR/97/P142, 24 h
Leishmania amazonensis [5] = assay: Antileishmanial activity against Leishmania amazonensis MHOM/BR/77/LTB0016 promastigotes after 24 hrs; format: functional, organism-based; details: MHOM/BR/77/LTB0016, 24 h
Pseudomonas aeruginosa = assay: Antibacterial activity against Pseudomonas aeruginosa MTCC 1688; format: functional
Escherichia coli [6] = assay: Antibacterial activity against Escherichia coli MTCC 443; format: functional
Streptococcus pyogenes = assay: Antibacterial activity against Streptococcus pyogenes MTCC 442; format: functional
Staphylococcus aureus [7] = assay: Antibacterial activity against Staphylococcus aureus MTCC 96; format: functional
[8] = test system: Mycobacterium tuberculosis; assay: Antitubercular activity against Mycobacterium tuberculosis H37Rv at 100 ug/ml by broth microdilution method relative to control; format: functional
Escherichia coli [9] = assay: Antibacterial activity against Escherichia coli MTCC 443 by broth microdilution method; format: functional
[10] = Selectivity index, ratio of IC50 for rat seminal vesicles COX1 to IC50 for recombinant human COX2
Rattus norvegicus [11] = assay: Anti inflammatory activity in Wistar rat assessed as carrageenan-induced paw edema at 10 mg/kg, po pretreated for 15 mins followed by carrageenan addition measured after 90 mins (reference value: 38.7%); format: functional
Fusarium oxysporum = assay: Antifungal activity against Fusarium oxysporum f. sp. albedinis; format: functional, organism-based
Leishmania amazonensis [12] = assay: Antileishmanial activity against Leishmania amazonensis axenic amastigotes after 24 hrs; format: functional, organism-based
Leishmania amazonensis [13] = assay: Antileishmanial activity against Leishmania amazonensis amastigotes assessed as reduction in […] lode in early log phase after 24 hrs; format: functional, organism-based
Leishmania amazonensis [14] = assay: Antileishmanial activity against Leishmania amazonensis amastigotes assessed as reduction in […] lode in late log phase after 24 hrs; format: functional, organism-based
B16-F10 = assay: Antiproliferative activity against mouse B16F10 cells after 48 hrs by MTT assay; format: functional, cell-based; details: B16-F10, 48 h
MCF7 [15] = assay: Antiproliferative activity against human MCF7 cells after 48 hrs by MTT assay; format: functional, cell-based; details: MCF7, 48 h
Staphylococcus aureus [16] = assay: Antibacterial activity against Staphylococcus aureus; format: functional
MCF7 [17] = assay: Antiproliferative activity against human MCF7 cells; format: functional, cell-based
K562 = assay: Growth inhibition in human K562 cells at 10^-5 mol/L relative to control; format: functional; details: read-out: GI
Candida albicans = assay: Antifungal activity against Candida albicans after 48 hrs; format: functional
Yarrowia lipolytica = assay: Antifungal activity against Candida lipolytica after 48 hrs; format: functional
Leishmania amazonensis [18] = assay: Antileishmanial activity against Leishmania amazonensis amastigotes after 24 hrs by MTT assay; format: functional, organism-based
SGC-7901 = assay: Antiproliferative activity against human SGC7901 cells after 48 hrs by MTT assay; format: functional, cell-based; details: SGC-7901, 48 h
SMMC-7721 = assay: Antiproliferative activity against human SMMC7721 cells after 48 hrs by MTT assay; format: functional, cell-based; details: SMMC-7721, 48 h

SMILES: CCn1cc(C(=O)O)c(=O)c2cc(F)c(N3CCNCC3)cc21 [NORFLOXACIN]
- IC50 (Bacillus subtilis): 100 µg/mL (≈ 313 µM)
- MIC (Bacillus subtilis): 100 µg/mL (≈ 313 µM)

SMILES: COc1ccc(-c2cc(-c3ccccc3)nn2CC(=O)Nc2ccc(S(N)(=O)=O)cc2)cc1
- UI (Rattus norvegicus [1]): 2.79
- inhibition in vivo at 5 mg/kg (Rattus norvegicus [2]): 81%
- Ratio IC50 (Ovis aries): 11.1

SMILES: CC(=O)NC1=NN(C(C)=O)C(c2cn(-c3ccccc3)nc2-c2ccc([N+](=O)[O-])cc2)S1 (stereo not drawn)
- inhibition in vivo at 50 mg/kg (Rattus norvegicus [3]): > 84.2%

SMILES: COc1cc(/C=C/c2nnc(-c3cc(-c4ccc(Cl)cc4)n[nH]3)o2)cc(OC)c1OC
- IC50 (MCF7 [4]): 1.8 µM
- IC50 (IMR-32): 3.2 µM
- IC50 (A549): 1.5 µM
- IC50 (HeLa): 2.3 µM

SMILES: Cc1nn(-c2ccc(S(=O)(=O)Nc3ccccc3)cc2)c(Cl)c1Br
- IC50 (Leishmania infantum): 59 µM
- IC50 (Leishmania amazonensis [5]): 70 µM

SMILES: CC(=O)NC1=NN(C(C)=O)C(c2cn(-c3ccccc3)nc2-c2ccc(O)cc2)S1 (stereo not drawn)
- inhibition in vivo at 50 mg/kg (Rattus norvegicus [3]): > 84.2%

SMILES: O=c1[nH]/c(=C\c2nc3cc(Cl)ccc3s2)s/c1=C\c1cn(-c2ccccc2)nc1-c1ccc(Cl)cc1
- Activity (Pseudomonas aeruginosa): 200 µg/mL
- Activity (Escherichia coli [6]): 100 µg/mL

SMILES: COC(=O)Nc1nc2cc(C(=O)c3cccs3)ccc2[nH]1 [NOCODAZOLE]
- IC50 (MCF7 [4]): 1.25 µM
- IC50 (IMR-32): 1.3 µM
- IC50 (A549): 0.9 µM
- IC50 (HeLa): 1.2 µM

SMILES: N=C(N)c1ccc(OCCCCCOc2ccc(C(=N)N)cc2)cc1 [PENTAMIDINE]
- IC50 (Leishmania infantum): 62 µM
- IC50 (Leishmania amazonensis [5]): 21 µM

SMILES: CC1(C)S[C@@H]2[C@H](NC(=O)[C@H](N)c3ccccc3)C(=O)N2[C@H]1C(=O)O [AMPICILLIN]
- IC50 (Bacillus subtilis): 250 µg/mL (≈ 715 µM)
- MIC (Bacillus subtilis): 250 µg/mL (≈ 715 µM)
- Activity (Streptococcus pyogenes): 200 µg/mL
- Activity (Staphylococcus aureus [7]): 200 µg/mL
- Activity (Escherichia coli [6]): 100 µg/mL

SMILES: CO[C@H]1/C=C/O[C@@]2(C)Oc3c(C)c(O)c4c(O)c(c(/C=N/N5CCN(C)CC5)c(O)c4c3C2=O)NC(=O)/C(C)=C\C=C\[C@H](C)[C@H](O)[C@@H](C)[C@@H](O)[C@@H](C)[C@H](OC(C)=O)[C@@H]1C [RIFAMPIN]
- inhibition at 100 µg/mL [8]: 98%

SMILES: Cc1n[nH]c(O)c1C(NNC(N)=O)c1ccc(O)cc1 (stereo not drawn)
- MIC (Escherichia coli [9]; Escherichia coli, MTCC 443): 0.25 µg/mL (≈ 0.902 µM)

SMILES: O=C(O)Cc1ccccc1Nc1c(Cl)cccc1Cl [DICLOFENAC]
- inhibition in vivo at 50 mg/kg (Rattus norvegicus [3]): 86.7%

SMILES: Cc1ccc(/N=C/c2ccc(OCCOc3cc(C)nn3-c3ccccc3)cc2)cc1
- Ratio IC50 [10]: 0.44
- Activity (Rattus norvegicus [11]): 19.4%

SMILES: C/C(O)=C/C(=O)c1cc(C)n(C)n1
- IC50 (Fusarium oxysporum): 0.055 µM
- MIC (Fusarium oxysporum): 0.055 µM (≈ 9.91 ng/mL)

SMILES: CC(=O)N1CCN(c2ccc(OCC3COC(Cn4ccnc4)(c4ccc(Cl)cc4Cl)O3)cc2)CC1 (stereo not drawn) [KETOCONAZOLE]
- IC50 (Leishmania amazonensis [12]): 164 µM
- IC50 (Leishmania amazonensis [13]): 12.5 µM
- IC50 (Leishmania amazonensis [14]): 29.8 µM

SMILES: Cc1cc(OCCOc2ccc(/C=N/c3ccccc3)cc2)n(-c2ccccc2)n1
- Ratio IC50 [10]: 0.51
- Activity (Rattus norvegicus [11]): 13.4%

SMILES: Cc1cccc(NS(=O)(=O)c2ccccc2)c1-c1ccn(S(=O)(=O)c2ccccc2)n1
- IC50 (Leishmania amazonensis [12]): 56 µM
- IC50 (Leishmania amazonensis [13]): 6.7 µM
- IC50 (Leishmania amazonensis [14]): 41.3 µM

SMILES: C#Cc1cccc(Nc2ncnc3cc(OCCOC)c(OCCOC)cc23)c1 [ERLOTINIB]
- IC50 (B16-F10): 0.12 µM
- IC50 (MCF7 [15]): 0.08 µM

SMILES: COc1ccc2c(c1)c(CC(=O)O)c(C)n2C(=O)c1ccc(Cl)cc1 [INDOMETHACIN]
- UI (Rattus norvegicus [1]): 12.82

SMILES: COc1ccc(/C=C/C(=O)OCc2cn(-c3ccccc3)nc2-c2ccc(OC)cc2)cc1
- IC50 (MCF7 [15]): 0.3 µM

SMILES: CN[C@@H]1[C@H](O[C@H]2[C@H](O[C@H]3[C@H](O)[C@@H](O)[C@H](N=C(N)N)[C@@H](O)[C@@H]3N=C(N)N)O[C@@H](C)[C@]2(O)C=O)O[C@@H](CO)[C@H](O)[C@H]1O [STREPTOMYCIN]
- Activity (Staphylococcus aureus [16]): 500 µg/mL
- Activity (Escherichia coli [9]): 500 µg/mL

SMILES: CCCCCCCCCCn1nc(-c2cc(Br)ccc2Cl)c(C(N)=O)c1N
- IC50 (MCF7 [17]): 2.5 µM

SMILES: Cc1cc(C)n(C(=O)c2cc(-c3ccc(F)cc3F)ccc2O)n1
- inhibition of growth at 10 µM (K562): 70%

SMILES: O=c1[nH]/c(=C\c2nc3cc(Cl)ccc3s2)s/c1=C\c1cn(-c2ccccc2)nc1-c1ccc(Br)cc1
- Activity (Pseudomonas aeruginosa): 200 µg/mL
- Activity (Streptococcus pyogenes): 100 µg/mL
- Activity (Staphylococcus aureus [7]): 100 µg/mL

SMILES: Clc1ccc(-c2cc(-c3nnc(/C=C/c4ccc5c(c4)OCO5)o3)[nH]n2)cc1Cl
- IC50 (MCF7 [4]): 3.9 µM
- IC50 (IMR-32): 4.1 µM
- IC50 (A549): 2.3 µM
- IC50 (HeLa): 2.8 µM

SMILES: Cc1ccc(-c2cc(C(F)(F)F)nn2-c2ccc(S(N)(=O)=O)cc2)cc1
- Ratio IC50 [10]: 0.0028

SMILES: COc1ccccc1C1CC(c2ccccc2)=NN1C(=N)N (stereo not drawn)
- MIC (Candida albicans): 15.6 to 62.5 µg/mL (≈ 53 to 212 µM)
- MIC (Yarrowia lipolytica): 15.6 to 62.5 µg/mL (≈ 53 to 212 µM)

SMILES: COc1ccc(-n2ncc(-c3nnn[nH]3)c2N)cc1
- IC50 (Leishmania amazonensis [18]): 22.3 µM

SMILES: O=c1[nH]cc(F)c(=O)[nH]1 [FLUOROURACIL]
- IC50 (SGC-7901): 16 µg/mL (≈ 123 µM)
- IC50 (SMMC-7721): 19.2 µg/mL (≈ 148 µM)

SMILES: CS(=O)(=O)Nc1ccc([N+](=O)[O-])cc1Oc1ccccc1 [NIMESULIDE]
- Activity (Rattus norvegicus [11]): 23.4%
